Test results as given in PubChem BioAssay (NCI).
“And” between values parts separate entries of the source, which are not always exact repeats. Equal entries are not always repeated.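 These data come from cells grown in 96-well plates and exposed to compound for 48 hours at five concentrations. Abbreviation: GI50, concentration required for 50% inhibition of growth. At the TGI there is no net growth.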

Experiments:
Test in all cases: NCI tumour cell line growth inhibition, 48 h
SF-539 CNS = test system: SF-539 CNS
COLO 205 colon = test system: COLO 205 colon
NCI-H522 lung = test system: NCI-H522 lung
CCRF-CEM leukemia = test system: CCRF-CEM leukemia
MOLT-4 leukemia = test system: MOLT-4 leukemia
SNB-75 CNS = test system: SNB-75 CNS
UO-31 renal = test system: UO-31 renal
UACC-62 melanoma = test system: UACC-62 melanoma
A549 NSCLC = test system: A549 NSCLC
HOP-62 NSCLC = test system: HOP-62 NSCLC

SMILES	TGI (SF-539 CNS)	TGI (COLO 205 colon)	TGI (NCI-H522 lung) [µM]	TGI (CCRF-CEM leukemia) [µM]	TGI (MOLT-4 leukemia) [µM]	TGI (SNB-75 CNS) [µM]	TGI (UO-31 renal) [µM]	TGI (UACC-62 melanoma)	TGI (A549 NSCLC) [µM]	GI50 (SF-539 CNS)	GI50 (COLO 205 colon)	GI50 (NCI-H522 lung)	GI50 (CCRF-CEM leukemia) [µM]	GI50 (HOP-62 NSCLC)	TGI (HOP-62 NSCLC) [µM]	GI50 (MOLT-4 leukemia) [µM]	GI50 (UO-31 renal) [µM]	GI50 (UACC-62 melanoma) [µM]	GI50 (SNB-75 CNS)	GI50 (A549 NSCLC)
O=C1CC=C2C3CC4N(CCC45c4ccccc4N1C25)C/C3=C\CO (configuration not stated)	> 100 µM	> 100 µM	> 100	> 100	> 100	> 100	> 100	> 100 µM	> 100	–	–	–	–	–	–	–	–	–	–	–
CC1(C)CC[C@]2(C(=O)NCCNCCN)CC[C@]3(C)C(=CC[C@@H]4[C@@]5(C)CCC(=O)C(C)(C)[C@@H]5CC[C@]43C)[C@@H]2C1	3.11 µM	4.18 µM	3.91	8.64	6.15	–	3.06	3.14 µM	–	1.72 µM	2.06 µM	1.78 µM	2.51	2.05 µM	4.13	2.44	1.65	1.69	–	–
O=C(N/C(=C\c1cccc([N+](=O)[O-])c1)c1nc2c3c(ccc2[nH]1)C(=O)c1ccccc1C3=O)c1ccccc1	> 100 µM	–	> 100	–	–	> 100	> 100	> 100 µM	> 100	–	–	–	–	–	> 100	–	–	–	–	–
CN1CCN(c2ccncc2S(=O)(=O)N2CCN(C)CC2)CC1	> 100 µM	> 100 µM	> 100	–	–	> 100	> 100	> 100 µM	> 100	–	–	–	–	–	> 100	–	–	–	–	–
Cn1nc(-c2ccccc2)c2c(/C=C/c3ccc(F)cc3)onc2c1=O	> 100 µM	> 100 µM	51.1	> 100	> 100	–	> 100	> 100 µM	> 100	–	–	–	–	–	> 100	–	–	–	–	–
O=C(/C=C/c1ccc(-c2ccccc2)cc1)c1ccccc1	32.2 µM	52.7 µM	35.4	> 100	> 100	> 100	> 100	50 µM	56.3	–	–	–	–	–	–	–	–	–	–	–
O=C1/C(=C/c2ccc(Cl)cc2)N=C(c2ccccc2)N1c1cc(C(F)(F)F)ccc1Cl	44.3 µM	40.7 µM	76	–	51.2	78.7	> 100	44.9 µM	> 100	18.1 µM	17.5 µM	20.1 µM	–	15 µM	42.8	15.5	19.4	14	18.6 µM	24.2 µM
Cn1cnc(SC2=CC(=O)C=C3S[C@H]4C[C@@]23c2c(c(O)c3c5c2=NCCC=5C=N3)N4)c1CC(N)C(=O)O (some centres not stated)	30.8 µM	3.01 µM	5.74	44.1	8.98	34.5	30.3	19.6 µM	30.2	16.6 µM	1.53 µM	2.42 µM	3.76	–	–	2.99	16.4	7.31	–	–
CC(=O)CCc1ccc(Oc2c3ccccc3nc3occc23)cc1	–	33.1 µM	> 100	94.7	–	61	> 100	–	35.2	–	16.8 µM	26.9 µM	24.1	20.1 µM	35.4	–	22.9	–	22.4 µM	15.6 µM
[Mn+3].[O-][Cl+3]([O-])([O-])O.[O-]c1ccccc1C=NCCN1CC1.[O-]c1ccccc1C=NCCN1CC1	> 100 µM	97.3 µM	> 100	–	25.4	70.1	> 100	33.6 µM	> 100	30.6 µM	28.9 µM	27.8 µM	–	28.6 µM	> 100	5.57	> 100	16.6	25.6 µM	38.6 µM
COC(=O)CCCCCOS(=O)(=O)c1ccc(C)cc1	> 100 µM	> 100 µM	> 100	> 100	> 100	> 100	> 100	> 100 µM	> 100	–	–	–	–	–	–	–	–	–	–	–
Cn1c(=O)nc2n(-c3ccc(F)c(F)c3)c3ccccc3nc-2c1=O	> 100 µM	15.7 µM	25.8	42.2	–	75	> 100	5.47 µM	60.5	–	–	–	–	–	> 100	–	–	–	–	–
Oc1cccc2cccnc12	54.1 µM and 81.1 µM and > 100 µM	40.3 µM and 67.7 µM and > 100 µM	–	–	–	> 100	> 100	26.8 µM and > 100 µM	> 100	4.56 µM and 26.9 µM and 4.11 µM	5.58 µM and 19.1 µM and 16.9 µM	0.22 µM and 0.487 µM and 1.92 µM	–	4.47 µM and 5.39 µM and 13.5 µM	> 100	–	–	–	44 µM and 18.4 µM	6.17 µM and 16.4 µM and 5.97 µM
CO[C@H]1/C=C/O[C@@]2(C)Oc3c(C)c(O)c4c(O)c(c(/C=N/N5C(C)CN(Cc6ccc(C#N)cc6)CC5C)c(O)c4c3C2=O)NC(=O)/C(C)=C\C=C\[C@H](C)[C@H](O)[C@@H](C)[C@@H](O)[C@@H](C)[C@H](OC(C)=O)[C@@H]1C (some centres not stated)	13 µM	16.4 µM	22	12.3	–	18.5	10.5	10.4 µM	17.1	6.22 µM	6.82 µM	6.22 µM	2.12	9.76 µM	20.6	–	3.64	3.88	7.25 µM	6.81 µM
C[N+]1(CCNP(=S)(NCC[N+]2(C)Cc3c(ccc4c3OCO4)C3C2c2cc4c(cc2C[C@@H]3O)OCO4)NCC[N+]2(C)Cc3c(ccc4c3OCO4)C3C2c2cc4c(cc2C[C@@H]3O)OCO4)Cc2c(ccc3c2OCO3)C2C1c1cc3c(cc1C[C@H]2O)OCO3 (some centres not stated)	–	–	–	> 383	–	–	–	–	–	1.99 µM	1.65 µM	2.55 µM	–	7.52 µM	–	–	4.3	1.23	1.18 µM	2.89 µM
CC(=O)O[C@H]1CC[C@@]2(C)C(=CC[C@H]3C(CC#N)[C@@](C)(C#N)CCC32)C1 (some centres not stated)	> 100 µM	> 100 µM	–	> 100	> 100	> 100	> 100	> 100 µM	> 100	–	–	–	–	–	> 100	–	–	–	–	–
C/C(=N\NC(=O)c1ccccc1O)c1c(O)cc(C)oc1=O	> 100 µM	> 100 µM	> 100	–	> 100	> 100	> 100	> 100 µM	> 100	–	–	–	–	–	> 100	–	–	–	–	–
C=C1C2CC(OC(C)=O)C3(C)C(c4ccoc4)OC(=O)[C@@H](O)[C@]13OC1C[C@H](OC(C)=O)C(C)(C)[C@H](C(O)C(=O)OC)[C@]12C (some centres not stated)	> 100 µM	> 100 µM	–	> 100	> 100	> 100	> 100	> 100 µM	> 100	–	–	–	–	–	–	–	–	–	–	–
Nc1ccc(C(=O)CC2(O)C(=O)Nc3ccccc32)cc1 (configuration not stated)	> 100 µM	> 100 µM	> 100	–	> 100	> 100	> 100	> 100 µM	> 100	–	–	–	–	–	–	–	–	–	–	–
CC1=NC(C)=C(/C(C)=N/NC(=O)c2ccccc2O)C(C)/C1=C(/C)NNC(=O)c1ccccc1O (configuration not stated)	76.2 µM	–	43.6	–	23.8	93.6	43.1	26.3 µM	96.5	–	–	–	–	–	> 100	–	–	–	–	–
COc1ccc(OC)c(-c2cc(-c3ccc(Cl)cc3)nn2-c2ccccc2)c1	95.2 µM	–	> 100	> 100	> 100	–	> 100	55.3 µM	> 100	36 µM	–	12.6 µM	8.57	–	–	8.7	> 100	11.2	–	65.8 µM
O=c1cccccc1O	–	> 100 µM	> 100	82.5	> 100	> 100	> 100	> 100 µM	> 100	–	–	–	–	–	–	–	–	–	–	–
CCCCSC1CCSc2c1ccc1ccccc21 (configuration not stated)	> 100 µM	> 100 µM	–	–	> 100	–	> 100	> 100 µM	> 100	–	–	–	–	–	> 100	–	–	–	–	–
Cc1cc2[nH]c(=O)c3c4ncccc4cn3c2cc1C	3.98 µM	–	–	> 100	> 100	15.7	4.58	4.33 µM	> 100	1.93 µM	–	–	2.95	3.81 µM	39.4	3.54	1.68	2.06	3.3 µM	4.82 µM
COc1cc(/C=C2\C[C@H]3[C@@H]4CC=C5C[C@@H](O)CC[C@]5(C)[C@H]4CC[C@]3(C)[C@H]2O)ccc1OCCN1CCCCC1	2.1 µM	–	> 50	1.88	> 50	–	–	3.45 µM	2.23	1.1 µM	–	1.6 µM	0.37	0.799 µM	1.68	3.07	1.18	1.73	–	0.815 µM
Cc1cc(C)c([I+]c2c(C)cc(C)cc2C)c(C)c1	2.16 µM	1.3 µM	1.45	2.24	–	1.39	3.7	1.5 µM	2.47	0.891 µM	0.342 µM	0.351 µM	0.365	0.841 µM	2.16	–	1.57	0.339	0.342 µM	0.958 µM
